From BindingDB's records for doi:10.1021/acs.jnatprod.9b00648 (Seoul National University, 2019)

Assay: Inhibition of VEGFR2 in HUVEC assessed as inhibition of VEGF-induced tube formation incubated for 8 hrs by inverted microscopic method

IC50: 40.4 µM
Compound: C/C=C(\C)C(=O)O[C@@H]1C2=C(C)C(=O)N[C@]2(O)C[C@@]2(C)O[C@@H]2CC[C@@]2(C)O[C@H]12
